The text below walks through data of US20050065066A1, “Stabilised insulin compositions” (priority 2002, published 2005).

Each structure is given as a SMILES string. Where two headings read alike, the source gives them in different places.

For series [1], the target named is T1, metal site of insulin R6 hexamers (Homo sapiens, UniProt P01308).
T1 construct: human insulin comprising additional amino acids, i.e. more than 51 amino acids
Briefly: TZD-assay: fluorescence based displacement assay. In kind it is binding. The procedure: The binding affinity of ligands to the metal site of insulin R6 hexamers are measured in a fluorescense based displacement assay. The fluorescence of 5-(4-dimethylaminobenzylidene)thiazolidine-2,4-dione (TZD) which is a ligand for the metal site of insulin R6 is quenched upon displacement from the metal site to the solution. Titration of a ligand to a stock solution of insulin R6 hexamers with this compound mounted in the metal site allows the binding affinity of these ligands to be determined measuring the fluorescence at 455 nm upon excitation at 410 nm.
Stock solution: 0.02 mM human insulin, 0.007 mM Zn-acetate, 40 mM phenol, 0.01 mM TZD in 50 mM tris buffer adjusted to pH=8.0 with NaOH/ClO4^−.
The ligand is dissolved in DMSO to a concentration of 5 mM and added in aliquots to the stock solution to final concentrations of 0-250 µM.
Fluorescence measurements were carried out on a Perkin Elmer Spectrofluorometer LS50B. T main absorption band was excited at 410 nm and emission was detected at 455 nm. The resolution was 10 nm and 2.5 nm for excitation and emission, respectively.
This equation is fitted to the datapoints ΔF(455 nm))=ΔFmax* [ligand]free/(KD(app)*(1+[TZD]/KTZD)+[ligand]free)) KD(app) is the apparent dissociation constant and Fmax is the fluorescence at maximal ligand concentration. The value of KTZD is measured separately to 230 nM
Two different fitting-procedures can be used. One in which both parameters, KD(app) and Fmax, are adjusted to best fit the data and a second in which the value of Fmax is fixed (Fmax=1) and only KD(app) is adjusted. The given data are from the second fitting procedure. The Solver module of Microsoft Excel can be used to generate the fits from the data points.

Series [2] is described as follows: Chemical stability of insulin formulations by RPC (reverse phase chromatography). In kind it is physicochemical. Particulars: formulated human insulin, 3 Zn2+ per hexamer. The procedure: (§1) The chemical stability of insulin formulations of the invention was characterised by HPLC (RPC, reverse phase chromatography and SEC, size exclusion chromatography). As reference, insulin formulated without ligands of the invention but with 0.3% DMSO was also investigated and shown below: [drawing]
FIG. 10. Reverse phase chromatography of formulated human insulin with 3 Zn^2+ per hexamer, 30 mM phenol, 150 mM mannitol, 3 mM phosphoric acid, sodium hydroxide to pH 7.4 and 0.3% DMSO corresponding to 3 ligands per hexamer at start (upper panel) and after storage for 2 weeks at 37° C. (lower panel): Preservatives before 20 min., “hydrophilic derivatives” (desamido-insulins) 20 min to main top insulin, “hydrophobic derivatives 1” main top to 64 min., and “hydrophobic derivatives 2” (insulin dimers) after 64 min.
(§2) Storage in HPLC 1 ml vials at 45° C. (5 d), 37° C. (2 w), 30° C. (6 w), 25° C. (10 w), 15° C. (30 w) gave about the same increase of transformation products correlating to an increase in reactions constants of a factor 3-4 per 10 degree.
RPC (reverse phase chromatography) on Waters SymmetryShield RP8 column, 150×4.6 mm and 3.5 μm, eluted by A: 0.2 M sodium sulfate+0.04 M sodium phosphate pH 7.2+10% acetonitrile and isocratically (i) or a gradient (g) of B: 70% acetonitrile [minutes/% B(i/g): 0/19, 21/24(i)(sudden change), 51/24(i), 81/39(g), 81.1/0(i), 82.3/19(i)] at flow of 0.9 mL/min and 30° C.

The nature of series [3]: Chemical stability of insulin formulations by SEC (size exclusion chromatography). The series is classed as physicochemical. The conditions noted are these: formulated human insulin, 3 Zn2+ per hexamer. The procedure: as §1, §2
SEC (size exclusion chromatography) on Waters insulin HMWP column, 300×7.8 mm, eluted by 15:20:65 of acetic acid: acetonitrile: arginine 1 g/L at flow of 1 mL/min and ambient temperature.

[4] abbreviates: affinity towards the zinc site, TZD-assay, read-out: Kd(app).

T1 sequence (P01308 25-54 limits assumed): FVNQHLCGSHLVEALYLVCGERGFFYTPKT
T1 sequence (P01308 90-110 limits assumed): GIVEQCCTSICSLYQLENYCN

With `c1ccc2[nH]nnc2c1` [Example 1], the Kd in series [1] (setting [4]) is 3880 nM.
As for `CCN(CC)c1ccc(/C=C2\SC(=O)NC2=O)cc1` [Example 70, 5-(4-Diethylaminobenzylidene)thiazolidine-2,4-dione], the “hphil (hydrophilic derivatives, desamido-insulins)” value in series [2] (5° predicted) is “(0.54) % formed/year”; in series [2] (15° C.) it was 1.95 % formed/year; in series [2] (25° C.), 6.08 % formed/year; in series [2] (30° C.) it was 12.1 % formed/year; in series [2] (37° C.) it was 23.7 % formed/year; in series [2] (45° C.), 56.2 % formed/year. In addition, the “hphob1 (hydrophobic derivatives 1)” value in series [2] (5° predicted) is reported as “(0.22) % formed/year”; in series [2] (15° C.), 1.09 % formed/year; in series [2] (25° C.), 4.99 % formed/year; in series [2] (30° C.) it was 6.94 % formed/year; in series [2] (37° C.), 14.8 % formed/year; in series [2] (45° C.), 78.8 % formed/year. Further, the “hphob2 (hydrophobic derivatives 2, insulin dimers)” value in series [2] (5° predicted) is listed as “(0.064) % formed/year”; in series [2] (15° C.), 0.42 % formed/year; in series [2] (25° C.), 0.94 % formed/year; in series [2] (30° C.), 3.03 % formed/year; in series [2] (37° C.), 6.50 % formed/year; in series [2] (45° C.), 27.0 % formed/year. The dimer result in series [3] (5° predicted) was “(0.15) % formed/year”; in series [3] (15° C.), 0.69 % formed/year; in series [3] (25° C.), 2.24 % formed/year; in series [3] (30° C.), 3.55 % formed/year; in series [3] (37° C.) it was 8.84 % formed/year; in series [3] (45° C.), 29.2 % formed/year.
In the case of `CCCCCOc1ccccc1/C=C1\SC(=O)NC1=O` [Example 76, 5-(2-Pentyloxybenzylidene)thiazolidine-2,4-dione], in series [1] (setting [4]), the Kd was 82 nM.
The compound `COc1cc(/C=C2\SC(=O)NC2=O)cc(I)c1O` [Example 167, 5-(4-Hydroxy-3-iodo-5-methoxybenzylidene)thiazolidine-2,4-dione] showed a melting point of 256 °C.
The same measure, in the same setting: the same measure for `O=C1NC(=O)/C(=C/c2ccc3cc(O)ccc3c2)S1` [Example 171, 5-(6-Hydroxy-2-naphthylmethylene)thiazolidine-2,4-dione]: 310 to 314 °C.
As to `O=C1NC(=O)C(=Cc2c[nH]c3ccc([N+](=O)[O-])cc23)S1` [Example 199, 5-(5-Nitro-1H-indol-3-ylmethylene)thiazolidine-2,4-dione], the melting point lay within 330 to 333 °C.
`O=C1NC(=O)/C(=C/c2c(Cl)cccc2Cl)S1` [Example 229, 5-(2,6-Dichlorobenzylidene)thiazolidine-2,4-dione] registered a melting point of 152 to 154 °C.
On the same count and under the same terms, the same measure for `COc1cc(O)cc(OC)c1/C=C1\SC(=O)NC1=O` [Example 234, 5-(4-Hydroxy-2,6-dimethoxybenzylidene)thiazolidine-2,4-dione]: 331 to 333 °C.
`Cc1cccc(C)c1/C=C1\SC(=O)NC1=O` [Example 235, 5-(2,6-Dimethylbenzylidene)thiazolidine-2,4-dione]: the melting point is 104 to 105 °C.
Take `COc1cccc(OC)c1/C=C1\SC(=O)NC1=O` [Example 236, 5-(2,6-Dimethoxybenzylidene)thiazolidine-2,4-dione]: the melting point fell in the range of 241 to 242 °C.
On to `COc1cc(OCc2c(F)cccc2[N+](=O)[O-])cc(OC)c1C=C1SC(=O)NC1=O` [Example 237, 5-[4-(2-Fluoro-6-nitrobenzyloxy)-2,6-dimethoxybenzylidene]thiazolidine-2,4-dione], for which the melting point fell in the range of 255 to 256 °C.
The compound `O=C1NC(=O)/C(=C/c2cc3ccccc3o2)S1` [Example 238, 5-Benzofuran-2-ylmethylenethiazolidine-2,4-dione] showed a melting point of 265 to 266 °C.
Still for that read-out and setting: the result for `CN(C)c1ccc(/C=C/C=C2\SC(=O)NC2=O)cc1` [Example 239, 5-[3-(4-Dimethylaminophenyl)allylidene]thiazolidine-2,4-dione] reads 259 to 263 °C.
`CC(/C=C1\SC(=O)NC1=O)=C\c1ccccc1` [Example 240, 5-(2-Methyl-3-phenylallylidene)thiazolidine-2,4-dione]: the melting point is 203 to 210 °C.
In the case of `O=C1NC(=O)/C(=C/C(Cl)=C/c2ccccc2)S1` [Example 241, 5-(2-Chloro-3-phenylallylidene)thiazolidine-2,4-dione], the melting point lay within 251 to 254 °C.
Take `O=C1NC(=O)/C(=C/c2cc3ccccc3[nH]c2=O)S1` [Example 242, 5-(2-Oxo-1,2-dihydroquinolin-3-ylmethylene)thiazolidine-2,4-dione]: the melting point lay within 338 to 347 °C.
For the compound `O=C(O)COc1cccc(/C=C2\SC(=O)NC2=O)c1` [Example 461, [3-(2,4-Dioxothiazolidin-5-ylidenemethyl)phenoxy]acetic acid], the “hphil (hydrophilic derivatives, desamido-insulins)” value was “(0.287) % formed/year” in series [2] (5° predicted); 1.14 % formed/year in series [2] (15° C.); 2.86 % formed/year in series [2] (25° C.); 5.12 % formed/year in series [2] (30° C.); 11.2 % formed/year in series [2] (37° C.); 29.9 % formed/year in series [2] (45° C.). For the same compound, the “hphob1 (hydrophobic derivatives 1)” value in series [2] (5° predicted) was “(0.153) % formed/year”; in series [2] (15° C.), 0.67 % formed/year; in series [2] (25° C.), 4.78 % formed/year; in series [2] (30° C.), 7.11 % formed/year; in series [2] (37° C.) it was 20.0 % formed/year; in series [2] (45° C.) it was 52.6 % formed/year. The “hphob2 (hydrophobic derivatives 2, insulin dimers)” value was “(0.044) % formed/year” in series [2] (5° predicted); 0.29 % formed/year in series [2] (15° C.); 0.99 % formed/year in series [2] (25° C.); 1.99 % formed/year in series [2] (30° C.); 7.02 % formed/year in series [2] (37° C.); 23.4 % formed/year in series [2] (45° C.). Besides, the dimer entry was “(0.057) % formed/year” in series [3] (5° predicted); 0.33 % formed/year in series [3] (15° C.); 1.20 % formed/year in series [3] (25° C.); 2.34 % formed/year in series [3] (30° C.); 6.50 % formed/year in series [3] (37° C.); 23.4 % formed/year in series [3] (45° C.).
Turning to `O=C(O)COc1ccc(/C=C2\SC(=O)NC2=O)c2ccccc12` [Example 476, [4-(2,4-Dioxothiazolidin-5-ylidenemethyl)naphthalen-1-yloxy]acetic acid], the Kd in series [1] (setting [4]) stood at 68 nM.
`c1cc(COc2ccc3ccccc3c2)cc(-c2nnn[nH]2)c1` [Example 572, 5-(3-(Naphthalen-2-yloxymethyl)-phenyl)-1H-tetrazole] had a melting point of 200 to 202 °C.
Take `Fc1ccc(Cn2c3ccccc3c3cc(-c4nn[nH]n4)ccc32)c(F)c1` [Example 759, 9-(2,4-Difluorobenzyl)-3-(2H-tetrazol-5-yl)-9H-carbazole]: in series [1] (setting [4]), the Kd was determined as 23 nM.
As for `CN(C)c1ccc(/C=C2\SC(=O)NC2=O)cc1` [TZD, 5-(4-dimethylaminobenzylidene)thiazolidine-2,4-dione, reference compound], the Kd in series [1] (measured separately, read-out: KTZD) is 230 nM.
